Assay results: ChEMBL document CHEMBL6092203, “Discovery of Novel PROTAC-Based HPK1 Degraders with High Potency and Selectivity for Cancer Immunotherapy” (J Med Chem, 2024)
pIC50: −log10 of the molar value. The source made the active and inactive calls. No cut-off for these calls is given here.

How the values were obtained:
[1] = target: T1, Protein cereblon/Mitogen-activated protein kinase kinase kinase kinase 1 (Homo sapiens, UniProt Q92918+Q96SW2); test: PROTAC activity at CRBN/HPK1 in human Jurkat cells assessed as HPK1 degradation at 1 uM after 4 hrs by Western blotting analysis; format: cell-based
T1 sequence (Q92918 whole entry, looked up): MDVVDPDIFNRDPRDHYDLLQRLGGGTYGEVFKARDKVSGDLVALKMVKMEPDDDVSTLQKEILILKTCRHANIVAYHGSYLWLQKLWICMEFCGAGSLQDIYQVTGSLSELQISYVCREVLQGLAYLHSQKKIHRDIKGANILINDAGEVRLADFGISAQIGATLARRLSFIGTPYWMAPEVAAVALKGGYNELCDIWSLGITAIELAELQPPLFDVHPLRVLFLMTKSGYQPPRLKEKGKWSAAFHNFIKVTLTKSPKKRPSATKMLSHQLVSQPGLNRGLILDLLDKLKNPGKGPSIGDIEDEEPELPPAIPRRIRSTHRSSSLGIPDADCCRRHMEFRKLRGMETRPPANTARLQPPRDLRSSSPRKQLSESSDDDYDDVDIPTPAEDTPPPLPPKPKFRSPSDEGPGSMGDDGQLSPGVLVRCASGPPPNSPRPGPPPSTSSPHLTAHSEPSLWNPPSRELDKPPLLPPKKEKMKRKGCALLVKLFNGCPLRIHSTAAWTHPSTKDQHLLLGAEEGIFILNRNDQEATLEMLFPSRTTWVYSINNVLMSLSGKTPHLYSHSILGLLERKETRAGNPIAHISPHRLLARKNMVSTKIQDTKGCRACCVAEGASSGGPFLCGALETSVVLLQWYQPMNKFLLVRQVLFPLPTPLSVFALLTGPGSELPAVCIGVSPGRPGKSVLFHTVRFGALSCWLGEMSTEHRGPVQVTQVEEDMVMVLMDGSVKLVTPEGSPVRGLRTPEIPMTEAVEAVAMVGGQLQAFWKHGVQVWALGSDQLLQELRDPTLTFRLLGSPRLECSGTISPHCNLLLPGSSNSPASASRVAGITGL
T1 sequence (Q96SW2 whole entry, looked up): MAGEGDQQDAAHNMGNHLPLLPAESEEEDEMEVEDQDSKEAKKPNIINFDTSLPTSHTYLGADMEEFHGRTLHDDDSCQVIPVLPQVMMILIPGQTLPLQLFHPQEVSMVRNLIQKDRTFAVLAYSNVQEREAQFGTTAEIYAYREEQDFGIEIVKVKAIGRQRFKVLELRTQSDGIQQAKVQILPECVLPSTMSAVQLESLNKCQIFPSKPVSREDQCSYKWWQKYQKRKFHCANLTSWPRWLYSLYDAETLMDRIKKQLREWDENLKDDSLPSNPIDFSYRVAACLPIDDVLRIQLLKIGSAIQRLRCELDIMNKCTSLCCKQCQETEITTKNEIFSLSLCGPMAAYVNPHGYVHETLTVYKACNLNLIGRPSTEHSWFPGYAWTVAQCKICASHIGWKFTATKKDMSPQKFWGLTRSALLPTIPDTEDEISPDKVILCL

Jurkat [2] = test: Induction of p-SLP76 at Ser376 protein degradation in human Jurkat cells incubated for 24 hrs by Western blotting analysis relative to control; format: cell-based
[3] = target: T1, Protein cereblon/Mitogen-activated protein kinase kinase kinase kinase 1; test: PROTAC activity at CRBN/HPK1 in human Jurkat cells assessed as HPK1 degradation at 1 uM pretreated with MLN4924 for 4 hrs followed by compound addition and measured after 24 hrs by Western blotting analysis; format: cell-based
Jurkat [4] = test: Induction of GCK degradation in human Jurkat cells at 1 to 1000 nM incubated for 24 hrs by Western blotting analysis; format: cell-based; conditions: dose 1-1000 nM
[5] = Plasma protein binding in dog at 10 uM incubated for 6 hrs by equilibrium dialysis based LC-MS/MS method; format: ADME, cell-free, Canis lupus familiaris; conditions: read-out: PPB (converted)
[6] = Metabolic stability in dog liver microsomes assessed as intrinsic clearance at 1 uM incubated for 45 mins by LC-MS/MS method; format: ADME, Canis lupus familiaris, Microsome; conditions: read-out: CLH
[7] = Metabolic stability in mouse hepatocytes assessed as intrinsic clearance at 1 uM incubated for 90 mins by LC-MS/MS method; format: ADME, cell-based, Hepatocyte; conditions: 1.5 h
[8] = Metabolic stability in dog hepatocytes assessed as intrinsic clearance at 1 uM incubated for 90 mins by LC-MS/MS method; format: ADME, cell-based, Canis lupus familiaris, Hepatocyte; conditions: 1.5 h
[9] = Metabolic stability in monkey hepatocytes assessed as intrinsic clearance at 1 uM incubated for 90 mins by LC-MS/MS method; format: ADME, cell-based, Macaca mulatta, Hepatocyte; conditions: rhesus monkey, 1.5 h
[10] = Metabolic stability in human hepatocytes assessed as intrinsic clearance at 1 uM incubated for 90 mins by LC-MS/MS method; format: ADME, cell-based, Hepatocyte; conditions: 1.5 h
[11] = Clearance in C57BL/6J mouse at 2 mg/kg, iv measured upto 24 hrs by LC-MS analysis; conditions: in vivo
[12] = Volume of distribution at steady state in Sprague-Dawley rat at 2 mg/kg, iv measured upto 24 hrs by LC-MS analysis; format: ADME, organism-based; conditions: in vivo, read-out: Vdss
[13] = Tmax in Sprague-Dawley rat at 1 mg/kg, po measured upto 24 hrs by LC-MS analysis; format: ADME, organism-based; conditions: in vivo
[14] = Half-life in Sprague-Dawley rat at 1 mg/kg, po measured upto 24 hrs by LC-MS analysis; conditions: in vivo
[15] = Tmax in Beagle dog at 5 mg/kg, po measured upto 24 hrs by LC-MS analysis; format: ADME, organism-based, Canis lupus familiaris; conditions: in vivo
[16] = Half-life in Beagle dog at 5 mg/kg, po measured upto 24 hrs by LC-MS analysis; conditions: in vivo
Cytochrome P450 3A4 = Cytochrome P450 3A4 (Homo sapiens, UniProt P08684); test: Inhibition of CYP3A4 in human liver microsomes using testosterone as substrate in presence of NADPH; format: ADME, Microsome
Chain of Cytochrome P450 3A4 (P08684 whole entry): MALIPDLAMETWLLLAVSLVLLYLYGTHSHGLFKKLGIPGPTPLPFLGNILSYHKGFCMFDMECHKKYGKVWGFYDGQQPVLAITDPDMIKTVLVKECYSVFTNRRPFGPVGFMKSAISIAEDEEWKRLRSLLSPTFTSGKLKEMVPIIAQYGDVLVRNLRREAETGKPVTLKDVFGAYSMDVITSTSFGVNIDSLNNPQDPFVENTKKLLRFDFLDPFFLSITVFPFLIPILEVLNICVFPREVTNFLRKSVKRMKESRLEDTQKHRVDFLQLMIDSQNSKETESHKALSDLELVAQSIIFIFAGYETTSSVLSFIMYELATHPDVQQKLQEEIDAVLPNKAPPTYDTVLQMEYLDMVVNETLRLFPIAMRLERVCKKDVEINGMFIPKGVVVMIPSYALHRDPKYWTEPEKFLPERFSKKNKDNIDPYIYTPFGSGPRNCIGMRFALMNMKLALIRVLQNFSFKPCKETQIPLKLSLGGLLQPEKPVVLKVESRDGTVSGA

[17] = Drug metabolism in mouse hepatocytes assessed as phase 1 metabolites formation at 10 uM incubated for 120 mins by UHPLC-UV/MS/MS method; format: ADME, cell-based, Hepatocyte; conditions: 2 h
[18] = Drug metabolism in mouse hepatocytes assessed as phase 2 metabolites formation at 10 uM incubated for 120 mins by UHPLC-UV/MS/MS method; format: ADME, cell-based, Hepatocyte; conditions: 2 h
[19] = Drug distribution in rat gastrointestinal tract measured after 0.5 to 6 hrs; format: ADME, tissue-based; conditions: in vivo, time 0.5-6 hrs
MC-38 [20] = test: Antitumor activity against mouse MC38 cells implanted in po dosed C57BL/6J mouse assessed as tumor growth inhibition administered for 3 to 4 weeks; format: functional, organism-based; conditions: time 3-4 weeks
[21] = Toxicity in C57BL/6J mouse assessed as body weight loss at 0.02 to 0.5 mg/kg, po qd administered for 3 to 4 weeks; format: organism-based; conditions: in vivo, dose lower 0.02 mg/kg, time lower 3 weeks, dose upper 0.5 mg/kg, time upper 4 weeks
MC-38 [22] = test: Synergistic antitumor activity against mouse MC38 cells implanted in C57BL/6J mouse assessed as tumor growth inhibition at 100 mg/kg, po QD measured after 4 weeks in presence of 5 mg/kg anti-PD1 and measured twice a week; format: functional; conditions: MC-38, 672 h, read-out: TGI
MC-38 [23] = test: Antitumor activity against mouse MC38 cells implanted in C57BL/6J mouse assessed as reduction in tumor weight at 100 mg/kg, po QD administered for 3 to 4 weeks (reference value: 1.79 +/- 0.24 g); format: functional; conditions: time 3-4 weeks
MC-38 [24] = test: Synergistic antitumor activity against mouse MC38 cells implanted in C57BL/6J mouse assessed as tumor weight inhibition rate at 100 mg/kg, po QD measured after 4 weeks in presence of 5 mg/kg anti-PD1 and measured twice a week; format: functional; design: scale not given: the % may be the effect or the level left
MC-38 [25] = test: Synergistic antitumor activity against mouse MC38 cells implanted in C57BL/6J mouse assessed as tumor weight inhibition rate at 1 mg/kg, po bid measured after 4 weeks in presence of 5 mg/kg anti-PD1 and measured twice a week; format: functional; design: scale not given: the % may be the effect or the level left
[26] = Tmax in female Sprague-Dawley rat at 30 mg/kg/day, po measured at day 1; format: ADME, organism-based; conditions: in vivo, time 1 day
[27] = Tmax in female Sprague-Dawley rat at 100 mg/kg/day, po measured at day 1; format: ADME, organism-based; conditions: in vivo, time 1 day
[28] = Tmax in female Sprague-Dawley rat at 2 mg/kg/day, po measured at day 14; format: ADME, organism-based; conditions: in vivo, time 14 day
[29] = Tmax in male Sprague-Dawley rat at 30 mg/kg/day, po measured at day 14; format: ADME, organism-based; conditions: in vivo, time 14 day
[30] = AUC(0 to 24 hrs) in female Sprague-Dawley rat at 100 mg/kg/day, po measured at day 1; format: ADME, organism-based; conditions: in vivo, time 1 day
[31] = Toxicity in Sprague-Dawley rat assessed as efficacy dose exposure measured after 14 days; conditions: in vivo
[32] = Toxicity in C57BL/6J mouse assessed as change in body weight at 100 mg/kg, po qd measured after 28 days; format: organism-based; conditions: in vivo, 672 h, time 28 day
[33] = Toxicity in C57BL/6J mouse assessed as change in body weight at 0.1 to 1 mg/kg, po bid measured after 28 days; format: organism-based; conditions: in vivo, 672 h, dose 0.1-1 mg/kg, time 28 day
in vivo [34] = conditions: male, Sprague-Dawley, rat, po, 2 mg/kg
in vivo [35] = conditions: male, Sprague-Dawley, rat, po, 30 mg/kg
in vivo [36] = conditions: male, Sprague-Dawley, rat, po, 2 mg/kg; remark: listed apart in the source
in vivo [37] = conditions: female, Sprague-Dawley, rat, po, 30 mg/kg
in vivo [38] = conditions: female, Sprague-Dawley, rat, po, 100 mg/kg
in vivo [39] = conditions: male, Sprague-Dawley, rat, po, 100 mg/kg
in vitro [40] = conditions: rat, liver microsomes
in vitro [41] = conditions: human, liver microsomes

Activity [1]: 55.6%
Activity [3]: inactive
fraction unbound at 6 h, 10 µM [5]: 0.0004
microsomal CLint at 1 µM [6]: 20.3 µL/min/mg
CLH [7]: 1.52 µL/min/mg
CLH [8]: 3.33 µL/min/mg
CLH [9]: 8.85 µL/min/mg
CLH [10]: 1.92 µL/min/mg
clearance at 24 h [11]: 6 mL/min/kg
Vd [12]: 0.834 L/kg
Tmax [13]: 3.17 h
half-life at 24 h [14]: 5.15 h
Tmax [15]: 2.67 h
half-life at 24 h [16]: 4.23 h
pIC50 (Cytochrome P450 3A4): < 5.00
Drug metabolism [17]: metabolite_detected
Drug metabolism [18]: metabolite_detected
Drug uptake [19]: Active
Tmax [26]: 8 h
Tmax [27]: 8 h
Tmax [28]: 6 h
Tmax [29]: 8 h
AUC(0-t) at 24 h [30]: 110 µg·h/mL
Cmax at 24 h (in vivo [34]): 84 ng/mL
Cmax at 24 h (in vivo [35]): 3560 ng/mL
Cmax at 336 h (in vivo [36]): 64.2 ng/mL
Cmax at 336 h (in vivo [37]): 4210 ng/mL
AUC at 336 h (in vivo [38]): 121 µg·h/mL
AUC at 336 h (in vivo [39]): 151 µg·h/mL
half-life at 0.75 h, 1 µM (in vitro [40]): 4.12 h
half-life at 0.75 h, 1 µM (in vitro [41]): > 5 h
SMILES: O=C1CCN(c2cc(C(=O)N3CCC(CC4CCN(c5ccc(-c6cnc7[nH]cc(-c8cnn(CC(F)(F)F)c8)c7n6)cn5)CC4)CC3)ccc2Cl)C(=O)N1
Emax (Jurkat [2]): 82.1%
Activity (Jurkat [4]): inactive
Activity (MC-38 [20]): Dose-dependent-effect; Twice Daily Dose Was Slightly Better Than Once Daily
Activity [21]: Non-toxic
inhibition in vivo at 100 mg/kg (MC-38 [22]): 91%
Activity (MC-38 [23]): 0.92 g
Activity (MC-38 [24]): 83.04%
Activity (MC-38 [25]): 76.61%
AUC at 336 h [31]: 0.291 µg·h/mL
Activity [32]: Non-toxic
Activity [33]: Non-toxic
